The subject of one series is L-929 cell line. Description: Neutral red uptake assay, L-929 cell line (primary screening). The class given is cell-based, mouse. The note with it: normal cell line L-929. The procedure: L-929 (mouse C3H/An connective tissue), Caco-2 (human colon adenocarcinoma), A172 (human glioblastoma), AGS (human gastric adenocarcinoma), HepaRG (human hepatoma cell), and HeLa (human cervix epithelioid carcinoma) cell lines were obtained from the European Collection of Authenticated Cell Cultures (ECACC) and provided by Sigma Aldrich/Merck (Munich, Germany). All cell lines were cultured in complete mediums prepared according to the ECACC recommendations and incubated in a humidified atmosphere with 5% CO2 at 37 °C. Neutral red uptake assay was performed according to the protocol. 24 h before treatment cells were seeded in 96-well plates in 1 × 10^5 cell/mL of complete medium. After incubation and attachment of cells, the medium was discarded, and test substances dissolved in the fresh medium were added to wells. Samples were tested after 24, 48, and 72 h incubation. A neutral red working solution (40 µg/mL) was prepared and incubated overnight. Immediately before use, it was centrifuged to remove any dye crystals. The medium from wells was aspirated, and 100 µL of neutral red was added to plates and incubated for at least 2 h in 37 °C and 5% CO2 in a humidified atmosphere. To inspect the absorption of neutral red to the lysosomes, microscope visualizations were performed. After incubation, cells were washed with PBS, and destain solution containing ethanol, deionized water, and glacial acetic acid (50:49:1) was added. Plates were shaken rapidly on a horizontal shaker at 37 °C. Absorption was measured using a Thermo Scientific™ (Waltham, MA, USA) Multiskan™ GO microplate spectrophotometer at 540 nm. The negative control was a medium with 1% DMSO, and the positive control was 1 µM staurosporine. Viability was calculated according to the following formula:(1) % Viability=ODtest substance−ODblind/ODnegative control−ODblind×100 Neutral red uptake assay was performed in quadruple (n = 4). Results were calculated to mean ± standard deviation (SD) using Microsoft Office Excel 2007. The viability in negative control was compared to 100%. Statistical analyses were performed using the GraphPad Prism 8.3 for Windows (GraphPad Software, La Jolla, CA, USA, www.graphpad.com). For IC50 results, non-linear regression analyses were performed, and a sigmoidal dose-response curve (variable slope) was fitted. Differences between groups and control were tested using an ANOVA test followed by Dunnett’s post hoc analysis. The significance was set at p ≤ 0.05.

For a further series, the system named is HepaRG. Description: Neutral red uptake assay, HepaRG. In kind it is cell-based. Conditions: Homo sapiens, 72 h exposure. Here is the method:
(§1) L-929 (mouse C3H/An connective tissue), Caco-2 (human colon adenocarcinoma), A172 (human glioblastoma), AGS (human gastric adenocarcinoma), HepaRG (human hepatoma cell), and HeLa (human cervix epithelioid carcinoma) cell lines were obtained from the European Collection of Authenticated Cell Cultures (ECACC) and provided by Sigma Aldrich/Merck (Munich, Germany). All cell lines were cultured in complete mediums prepared according to the ECACC recommendations and incubated in a humidified atmosphere with 5% CO2 at 37 °C. Neutral red uptake assay was performed according to the protocol. 24 h before treatment cells were seeded in 96-well plates in 1 × 10^5 cell/mL of complete medium. After incubation and attachment of cells, the medium was discarded, and test substances dissolved in the fresh medium were added to wells. Samples were tested after 24, 48, and 72 h incubation. A neutral red working solution (40 µg/mL) was prepared and incubated overnight. […] Absorption was measured using a Thermo Scientific™ (Waltham, MA, USA) Multiskan™ GO microplate spectrophotometer at 540 nm. […] Viability was calculated according to the following formula:(1) % Viability=ODtest substance−ODblind/ODnegative control−ODblind×100 Neutral red uptake assay was performed in quadruple (n = 4). Results were calculated to mean ± standard deviation (SD) using Microsoft Office Excel 2007. […]

For series [1], the system named is other cell lines (Caco-2, A172, HeLa, AGS). As to the kind of experiment: Neutral red uptake assay, other neoplastic cell lines. In kind it is cell-based, human. The note with it: cell lines other than HepaRG; viability decreased at 100–1000 µM; 72 h exposure. Here is the method: as §1
In series [2] the test system is Enterococcus faecalis ATCC 29212. As to the kind of experiment: Antimicrobial microdilution / modified Richards method. The class given is cell-based. (Dilution methods test growth across graded concentrations, often in twofold steps.)
In series [3] the test system is Candida albicans ATCC 10231. As to the kind of experiment: Antimicrobial microdilution / modified Richards method. The class given is cell-based. The note with it: ATCC10231; Candida albicans 10231; according to the EUCAST examination; read-out: MIC (reference agent).
The subject of series [4] is Escherichia coli ATCC 25922. Described as above. In kind it is cell-based. Conditions: ATCC25922; Escherichia coli 25922; according to the EUCAST examination; read-out: MIC (reference agent).
The subject of series [5] is Streptococcus pneumoniae ATCC 49619. Described as above. The class given is cell-based. Conditions: ATCC49619; Streptococcus pneumoniae 49619; according to the EUCAST examination; read-out: MIC (reference agent).
Series [6] has as its system Staphylococcus aureus ATCC 43300. The description is as above. In kind it is cell-based. Conditions: ATCC43300; Staphylococcus aureus 43300; according to the EUCAST examination; read-out: MIC (reference agent).
Series [7] concerns Klebsiella pneumoniae ATCC 13883. The series is described as above. The class given is cell-based. The note with it: ATCC13883; Klebsiella pneumoniae 13883; according to the EUCAST examination; read-out: MIC (reference agent).
For series [8], the system named is Pseudomonas aeruginosa ATCC 27853. The description is as above. In kind it is cell-based. Conditions: ATCC27853; Pseudomonas aeruginosa 27853; according to the EUCAST examination; read-out: MIC (reference agent).
Another series concerns AGS cell line. As to the kind of experiment: Microscopic observation of cell and nucleus morphology, Hoechst 33342. The class given is cell-based, human. Conditions: positive control, 1 µM. The procedure: Morphological changes and DNA fragmentation were examined with an Olympus IX53 inverted fluorescence microscope after staining with Hoechst 33342 according to the manufacturer’s recommendations Thermo Scientific (Waltham, MA, USA). Briefly, cells were seeded in 12-well plates with a density of 1 × 10^5 cell/mL. After overnight incubation, the test substance was added in a half-maximal inhibitory (IC50) concentration and incubated for 24, 48, and 72 h. Before microscopic observation, both adherent and floating cells were collected, centrifuged, resuspended in PBS containing 1 µg/mL Hoechst 33342 dye. After 10 min incubation in the dark, the morphology of cells and DNA were visualized using a contrast phase and a UV filter.

The mark [9] stands for this setting: Enterococcus faecalis ATCC 29212, range tested 1024 to 1 ug/mL.

Values after ≈ are worked out from the molar mass of the structure shown. Read-outs that look alike come from different tables or passages of the source.

By IC50 is commonly meant the concentration needed to halve the response being measured. A lower IC50 goes with greater potency in that assay. Broadly, the MBC is the smallest concentration meeting the test's criterion for killing. The MIC is the smallest concentration in the dilution series that meets the test's criterion for growth inhibition. For orientation: melting point means the temperature, or range, at which the solid turns liquid. `CCOc1ccc(NCc2c(C)nc(-c3ccccc3)nc2Nc2ccc(F)cc2)cc1` [Compound 2, 5-[(4-ethoxyanilino)methyl]-N-(4-fluorophenyl)-6-methyl-2-phenylpyrimidin-4-amine] had a melting point of 163 to 164 °C. Further, the “effect on L-929 survival” value with L-929 cell line is “did not significantly affect L-929 survival”. In the series on HepaRG, this compound yielded an IC50 of 404 µM. In addition, the IC50 result in [1] is reported as “IC50 was not reached”. Moreover, in [2] (setting [9]), the MBC stood at 1024 µg/mL (≈ 2390 µM) and the MIC stood at 512 µg/mL (≈ 1190 µM). In [2] (Enterococcus faecalis, ATCC29212, Enterococcus faecalis ATCC 29212, range tested 1024 to 1 ug/mL, read-out: MBC), the MBC turned out to be 512 µg/mL (≈ 1190 µM). Moreover, the MIC in [2] (Enterococcus faecalis, ATCC29212, Enterococcus faecalis ATCC 29212, range tested 1024 to 1 ug/mL, read-out: MIC) was 1020 µg/mL (≈ 2390 µM).
As for `Cc1nc(-c2ccccc2)nc(Nc2ccc(F)cc2)c1C=O` [Compound 4, 4-(4-fluoroanilino)-6-methyl-2-phenylpyrimidine-5-carbaldehyde], the melting point came to 184 °C.
Take `C[C@@H]1[C@H](O)[C@@H](C)/C=C/C=C/C=C/C=C/C=C/C=C/C=C/[C@H](O[C@@H]2O[C@H](C)[C@@H](O)[C@H](N)[C@@H]2O)C[C@@H]2O[C@](O)(C[C@@H](O)C[C@@H](O)[C@H](O)CC[C@@H](O)C[C@@H](O)CC(=O)O[C@H]1C)C[C@H](O)[C@H]2C(=O)O` [amphotericin B]: the MIC in series [3] amounted to 1 µg/mL (≈ 1.08 µM).
With `CNC(C)C1CCC(N)C(OC2C(N)CC(N)C(OC3OCC(C)(O)C(NC)C3O)C2O)O1` (centres unmarked) [gentamicin], the MIC in series [4] stood at 2 µg/mL (≈ 4.19 µM).
`C[C@H]1COc2c(N3CCN(C)CC3)c(F)cc3c(=O)c(C(=O)O)cn1c23` [levofloxacin]: the MIC in series [2] (Enterococcus faecalis, ATCC29212, Enterococcus faecalis 29212, according to the EUCAST examination, read-out: MIC (reference agent)) is 4 µg/mL (≈ 11.1 µM); in series [5], 0.001 µg/mL (≈ 0.00277 µM); in series [6], 1 µg/mL (≈ 2.77 µM); in [7], 0.5 µg/mL (≈ 1.38 µM); in series [8], 1 µg/mL (≈ 2.77 µM).
Consider `CN[C@@H]1C[C@H]2O[C@@](C)([C@@H]1OC)n1c3ccccc3c3c4c(c5c6ccccc6n2c5c31)C(=O)NC4` [staurosporine, reference compound], for which the “cell and nucleus morphology” value in the series with AGS cell line is “Shrunken cells’ bodies and fragmented DNA”.

The record behind these values is PMC8071423, “A New Pyrimidine Schiff Base with Selective Activities against Enterococcus faecalis and Gastric Adenocarcinoma” (Molecules, 2021).
